# Measured values from PubChem BioAssay AID463199 (Broad Institute, 2010).
# The source made the active and inactive calls.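 Rule for the calls: active = AC50, the dose giving half-maximal effect, exceeds a fixed cutoff for a compound that rescues yeast growth under heat; inactive = the rest, inconclusive results apart.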
# System: S. cerevisiae Burl-1 ts mutant growth, BacTiter-Glo, 38.5C 24 h
# Experiment: restored growth of temperature-sensitive Burl-1 yeast – whole organism, S. cerevisiae, Burl-1 ts mutant, luminescence, counter-screen for SUMOylation pathway inhibitor project, dose response (AID 463199)
row,SMILES,AC50
1,CN(C)CCCN(Cc1ccccc1)C(=S)Nc1ccc(F)c(Cl)c1,> 42 µM (inactive)
2,CC(C)(C)NC(=O)CC1C(=O)NCCN1Cc1c(F)cccc1Cl (centres undefined),37.4 µM
3,COc1ccc2[nH]cc(CCNS(=O)(=O)c3ccc(C)cc3)c2c1,> 42 µM (inactive)
4,O=C(NC1CCCCCC1)C1CCN(S(=O)(=O)c2cccc3cccnc23)CC1,> 42 µM (inactive)
5,CN(C)c1cccc(C(=O)Nc2cc(C(F)(F)F)ccc2-n2cnc3ccccc32)c1,> 42 µM (inactive)
6,O=C(Nc1ccc2c(c1)CCCN2C(=O)c1cccs1)c1cccc(F)c1,> 42 µM (inactive)
7,Cc1ccc(N(CC(=O)NC2CCCC2)C(=O)CCC(=O)Nc2ccccn2)cc1C,> 42 µM (inactive)
8,COC(=O)C1=C(C)NC(C)=C([N+](=O)[O-])C1c1ccccc1C(F)(F)F (centres undefined),> 42 µM (inactive)
9,O=C(CCSc1ccccc1)Nc1ncccn1,> 42 µM (inactive)
10,COC(=O)c1ccc(Cl)c(NC(=O)CN(c2ccc(OC)c(OC)c2)S(C)(=O)=O)c1,> 42 µM (inactive)
11,CCOC(=O)CSc1nc2ccccc2c(=O)n1CC(C)C,> 42 µM (inactive)
12,COc1ccccc1CNC(=O)C(C)Sc1ccc(C)cc1 (centres undefined),> 42 µM (inactive)
13,Cc1ccc(C(=O)O)cc1N=Cc1cc(Br)cc(Br)c1O,> 42 µM (inactive)
14,Cc1cccc(N(Cc2ccccc2)C(=O)CSC(C)C(=O)Nc2cc(C)on2)c1 (centres undefined),> 42 µM (inactive)
15,CC(C)NC(=O)COc1ccc(S(=O)(=O)N(C)Cc2ccccc2)cc1,> 42 µM (inactive)
16,Cc1ccc(N2C(=O)c3cccc4c(N5CCN(C)CC5)ccc(c34)C2=O)c2cccnc12,> 42 µM (inactive)
17,CCNC(=O)COc1ccc(S(=O)(=O)Nc2ccccc2)cc1,> 21 µM (inactive)
18,c1ccc2cc(Cn3ccnc3)ccc2c1,> 42 µM (inactive)
19,Cc1ccc(S(=O)(=O)Cc2ccc(C(=O)N3CCN(c4ccccn4)CC3)o2)cc1,> 42 µM (inactive)
20,CCCCC(=O)Nc1cc(OC)c(NC(=O)C2CCCCC2)cc1OC,> 42 µM (inactive)

row,SMILES,AC50
1,CC(=O)OCC(OC(C)=O)C(OC(C)=O)C(OC(C)=O)C(=O)Nc1ccccc1 (centres undefined),> 42 µM (inactive)
2,O=C(/C=C/c1cccc([N+](=O)[O-])c1)NCCSCc1ccc(Cl)cc1Cl,> 42 µM (inactive)
3,COc1ccc(C(=O)CSc2nnc(CNC(=O)c3ccccc3)n2C)cc1,> 42 µM (inactive)
4,O=C(NCC1CCCO1)C1CC(c2ccc(Cl)c(Cl)c2)=NO1 (centres undefined),> 42 µM (inactive)
5,Cc1ccc(NC(=O)CC2CS(=O)(=O)CC2CC(=O)Nc2ccc(C)c(C)c2)cc1C (centres undefined),19.2 µM
6,COc1ccc(OCCC(=O)c2ccc(OC)cc2)cc1,> 42 µM (inactive)
7,O=C(O)COc1ccc(=O)n(-c2ccccc2)n1,> 42 µM (inactive)
8,CCc1c(C)c2ccc(OCC(=O)OC(C)C)c(C)c2oc1=O,> 42 µM (inactive)
9,COc1ccc(NC(=O)C2CCCN2S(=O)(=O)c2cccc3cccnc23)cc1OC (centres undefined),> 42 µM (inactive)
10,COc1ccc(C2CC3(CC(C)(C)NC(=S)N3)Oc3cc(O)cc(C)c32)cc1 (centres undefined),> 42 µM (inactive)
11,CCCCOc1ccc(C(O)C(CN2CCOCC2)c2ccccc2)cc1 (centres undefined),> 42 µM (inactive)
12,COc1ccc(-c2cn(-c3ccc(C)cc3)c(=O)n2CC(=O)Nc2ccc(OC)c(OC)c2)cc1,> 42 µM (inactive)
13,O=C(N/C(=C/c1ccc2c(c1)OCO2)C(=O)N1CCOCC1)c1cccs1,> 42 µM (inactive)
14,CN(C)CCNC(=O)c1onc(CSc2ccc(F)c(F)c2)c1C(=O)NCCN(C)C,> 42 µM (inactive)
15,CSc1cccc(NC(=S)N2CCCN(Cc3ccccc3F)C2)c1,> 42 µM (inactive)
16,CCOC(=O)Cn1c(C)c(Br)c(=O)c2cccc(C)c21,> 42 µM (inactive)
17,COc1ccccc1NS(=O)(=O)c1cc(Cl)ccc1OC,> 42 µM (inactive)
18,Cc1cccc(OCc2nnc(SCC(=O)N3c4ccccc4CC3C)n2C)c1C (centres undefined),> 42 µM (inactive)
19,COc1ccc(NC2=C(C)C(=O)CC2)cc1,> 42 µM (inactive)
